ChEMBL document CHEMBL1201862, “PubChem BioAssay data set” (2004)
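Test compounds were applied to cells in 96-well plates for 48 hours at 5 doses. GI50 = concentration required for 50% inhibition of growth.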 Activity calls are given as the source filed them. Rule as the data show it: active = GI50 up to about 1.1 µM and inactive = higher.

Legend:
Assay in all cases: NCI-60 cell line screen, 48 h
M14 = tested on: M14
PC-3 = tested on: PC-3
MDA-N = tested on: MDA-N
NCI-H23 = tested on: NCI-H23
NCI-H460 = tested on: NCI-H460
SF-295 = tested on: SF-295
SN12C = tested on: SN12C
T47D = tested on: T47D
COLO 205 = tested on: COLO 205
HOP-62 = tested on: HOP-62
ACHN = tested on: ACHN
LOX IMVI = tested on: LOX IMVI
MOLT-4 = tested on: MOLT-4
EKVX = tested on: EKVX
UO-31 = tested on: UO-31
OVCAR-8 = tested on: OVCAR-8
IGROV-1 = tested on: IGROV-1
CCRF-CEM = tested on: CCRF-CEM
SNB-75 = tested on: SNB-75
NCI-H226 = tested on: NCI-H226
HCT-116 = tested on: HCT-116
SW-620 = tested on: SW-620
786-0 = tested on: 786-0
MDA-MB-435 = tested on: MDA-MB-435
U-251 = tested on: U-251
NCI-H522 = tested on: NCI-H522
Malme-3M = tested on: Malme-3M
NCI/ADR-RES = tested on: NCI/ADR-RES
CAKI-1 = tested on: CAKI-1
MCF7 = tested on: MCF7
RPMI-8226 = tested on: RPMI-8226
Hs-578T = tested on: Hs-578T
A549 = tested on: A549
HL-60 = tested on: HL-60
HT-29 = tested on: HT-29
OVCAR-3 = tested on: OVCAR-3
SK-OV-3 = tested on: SK-OV-3
KM12 = tested on: KM12
UACC-62 = tested on: UACC-62
OVCAR-4 = tested on: OVCAR-4
SF-268 = tested on: SF-268
SR = tested on: SR
DU-145 = tested on: DU-145
SNB-19 = tested on: SNB-19
HOP-92 = tested on: HOP-92
K562 = tested on: K562
SK-MEL-2 = tested on: SK-MEL-2
TK-10 = tested on: TK-10
UACC-257 = tested on: UACC-257
HCT-15 = tested on: HCT-15
OVCAR-5 = tested on: OVCAR-5
BT-549 = tested on: BT-549
SK-MEL-28 = tested on: SK-MEL-28
SK-MEL-5 = tested on: SK-MEL-5
SF-539 = tested on: SF-539
HCC 2998 = tested on: HCC 2998
A498 = tested on: A498
RXF 393 = tested on: RXF 393

Cc1ccc(S(=O)(=O)N/N=C2/C3C(CC2(C)C)C2(C)CCCC3(C)C2O)cc1 (centres undefined)
GI50 (M14): 22.9 µM (inactive) | GI50 (PC-3): 9.59 µM (inactive) | GI50 (MDA-N): 20.1 µM (inactive) | GI50 (NCI-H23): 22.8 µM (inactive) | GI50 (NCI-H460): 17.8 µM (inactive) | GI50 (SF-295): 15.4 µM (inactive) | GI50 (SN12C): 19.9 µM (inactive) | GI50 (T47D): 18.2 µM (inactive) | GI50 (COLO 205): 16 µM (inactive) | GI50 (HOP-62): 30.1 µM (inactive) | GI50 (ACHN): > 10 µM (inactive) | GI50 (LOX IMVI): 13.4 µM (inactive) | GI50 (MOLT-4): 12.9 µM (inactive) | GI50 (EKVX): 45.7 µM (inactive) | GI50 (UO-31): 26.2 µM (inactive) | GI50 (OVCAR-8): 32.7 µM (inactive) | GI50 (IGROV-1): 25 µM (inactive) | GI50 (CCRF-CEM): 16.8 µM (inactive) | GI50 (SNB-75): 17.7 µM (inactive) | GI50 (NCI-H226): 17 µM (inactive) | GI50 (HCT-116): 18.7 µM (inactive) | GI50 (SW-620): > 10 µM (inactive) | GI50 (786-0): 21.3 µM (inactive) | GI50 (MDA-MB-435): > 10 µM (inactive) | GI50 (U-251): 16.3 µM (inactive) | GI50 (NCI-H522): 19.6 µM (inactive) | GI50 (Malme-3M): 24 µM (inactive) | GI50 (NCI/ADR-RES): 21.2 µM (inactive) | GI50 (CAKI-1): 39.3 µM (inactive) | GI50 (MCF7): 17.5 µM (inactive) | GI50 (RPMI-8226): 35.6 µM (inactive) | GI50 (Hs-578T): 19 µM (inactive) | GI50 (A549): 20 µM (inactive) | GI50 (HL-60): 26.1 µM (inactive) | GI50 (HT-29): 20.1 µM (inactive) | GI50 (OVCAR-3): 34.4 µM (inactive) | GI50 (SK-OV-3): 20.9 µM (inactive) | GI50 (KM12): 18.3 µM (inactive) | GI50 (UACC-62): 14.8 µM (inactive) | GI50 (OVCAR-4): 19.1 µM (inactive) | GI50 (SF-268): 30.5 µM (inactive) | GI50 (SR): 20.7 µM (inactive) | GI50 (DU-145): 39.1 µM (inactive) | GI50 (SNB-19): 29.4 µM (inactive) | GI50 (HOP-92): 17.2 µM (inactive) | GI50 (K562): 23.9 µM (inactive) | GI50 (SK-MEL-2): 21 µM (inactive) | GI50 (TK-10): 36 µM (inactive) | GI50 (UACC-257): 16.8 µM (inactive) | GI50 (HCT-15): 23.2 µM | GI50 (OVCAR-5): > 10 µM (inactive) | GI50 (BT-549): 14.3 µM (inactive) | GI50 (SK-MEL-28): 18.9 µM (inactive) | GI50 (SK-MEL-5): 15.5 µM (inactive)

O=c1oc(-c2ccc(O)c(O)c2)cc2cccc(O)c12 [THUNBERGINOL A]
GI50 (M14): 19.5 µM (inactive) | GI50 (PC-3): 11.1 µM (inactive) | GI50 (SF-539): 23.9 µM (inactive) | GI50 (NCI-H23): 16.1 µM (inactive) | GI50 (NCI-H460): 13.4 µM (inactive) | GI50 (SF-295): 27.5 µM (inactive) | GI50 (SN12C): 14.4 µM (inactive) | GI50 (T47D): 0.871 µM (active) | GI50 (COLO 205): 10.5 µM (inactive) | GI50 (HOP-62): 15.2 µM (inactive) | GI50 (ACHN): 21.4 µM (inactive) | GI50 (MOLT-4): 3.42 µM (inactive) | GI50 (EKVX): 14.1 µM (inactive) | GI50 (UO-31): 14.7 µM (inactive) | GI50 (OVCAR-8): 36.6 µM (inactive) | GI50 (IGROV-1): 6.19 µM (inactive) | GI50 (CCRF-CEM): 0.998 µM (active) | GI50 (SNB-75): 23.1 µM (inactive) | GI50 (HCC 2998): 12.8 µM (inactive) | GI50 (HCT-116): 10.3 µM (inactive) | GI50 (SW-620): 21.1 µM (inactive) | GI50 (786-0): 19.6 µM (inactive) | GI50 (MDA-MB-435): 24.2 µM (inactive) | GI50 (A498): 19.9 µM (inactive) | GI50 (NCI-H522): 15.4 µM (inactive) | GI50 (Malme-3M): 31.3 µM (inactive) | GI50 (NCI/ADR-RES): 14.6 µM (inactive) | GI50 (CAKI-1): 6.71 µM (inactive) | GI50 (MCF7): 9.57 µM (inactive) | GI50 (RPMI-8226): 10.5 µM (inactive) | GI50 (Hs-578T): 21.2 µM (inactive) | GI50 (A549): 35.4 µM (inactive) | GI50 (HL-60): 17.1 µM (inactive) | GI50 (OVCAR-3): 10.5 µM (inactive) | GI50 (RXF 393): 18.9 µM (inactive) | GI50 (SK-OV-3): 29.4 µM (inactive) | GI50 (KM12): 11.4 µM (inactive) | GI50 (OVCAR-4): 20.1 µM (inactive) | GI50 (SF-268): 19.8 µM (inactive) | GI50 (DU-145): 23.8 µM (inactive) | GI50 (SNB-19): 19.1 µM (inactive) | GI50 (HOP-92): 2.07 µM (inactive) | GI50 (K562): 22.1 µM (inactive) | GI50 (SK-MEL-2): 26.1 µM (inactive) | GI50 (TK-10): 4.9 µM (inactive) | GI50 (UACC-257): 22.6 µM (inactive) | GI50 (HCT-15): 4.99 µM | GI50 (OVCAR-5): 22 µM (inactive) | GI50 (BT-549): 15.6 µM (inactive) | GI50 (SK-MEL-5): 9.4 µM (inactive)
